Calls of active or inactive are those of the source. No rule for the calls is given here.
How the values were obtained:
[1] = anti-RSV activity in infected cells – counter-screen for VEEV inhibitor project, dose response (AID 602470); settings: RSV-infected cells, antiviral CPE inhibition; at 12.5 µM (top of the series)
[2] = tested on: RSV-infected cells, antiviral CPE inhibition; test: as above

Compound | inhibition [1] | IC50 [2] [nM]
CCN1CCN(Cc2nc3ccc([N+](=O)[O-])cc3c(=O)n2-c2ccccc2F)CC1 | 38.2% (inactive) | 
CN(C(=O)Cc1cccs1)c1nc2c(s1)CCCC2 |  | 680
CN1CCN(Cc2nc3ccc([N+](=O)[O-])cc3c(=O)n2-c2ccccc2F)CC1 | 31.6% (inactive) | 

— PubChem BioAssay AID602470 (Southern Research Specialized Biocontainment Screening …, 2012)
